# Measured values as given in patent US8623832B2, “Peptide compositions that bind TLR-4” (The Board of Regents of the University of Oklahoma, priority 2011, dated 2014).
# Where no end group is shown, it is not given here.
# Columns and labels:
# [1] = target: T1, recombinant TLR4-MD2 protein (Homo sapiens, UniProt O00206); assay: Microwell-based binding to immobilized recombinant TLR4-MD2 protein; conditions: for binding to surface-bound TLR4-MD2 protein: 0.25 μg TLR4-MD2 per well, detected with SP-A-specific antibody
# T1 construct: extracellular domain of human TLR4 protein (Glu 24-Lys 631 amino acids); 10x histidine tag (C); signal peptide from human CD33 (N); purchased R&D Systems, MN; host or cells: mouse myeloma cell line NS0
# T1 sequence (O00206 24-631, one chain of several): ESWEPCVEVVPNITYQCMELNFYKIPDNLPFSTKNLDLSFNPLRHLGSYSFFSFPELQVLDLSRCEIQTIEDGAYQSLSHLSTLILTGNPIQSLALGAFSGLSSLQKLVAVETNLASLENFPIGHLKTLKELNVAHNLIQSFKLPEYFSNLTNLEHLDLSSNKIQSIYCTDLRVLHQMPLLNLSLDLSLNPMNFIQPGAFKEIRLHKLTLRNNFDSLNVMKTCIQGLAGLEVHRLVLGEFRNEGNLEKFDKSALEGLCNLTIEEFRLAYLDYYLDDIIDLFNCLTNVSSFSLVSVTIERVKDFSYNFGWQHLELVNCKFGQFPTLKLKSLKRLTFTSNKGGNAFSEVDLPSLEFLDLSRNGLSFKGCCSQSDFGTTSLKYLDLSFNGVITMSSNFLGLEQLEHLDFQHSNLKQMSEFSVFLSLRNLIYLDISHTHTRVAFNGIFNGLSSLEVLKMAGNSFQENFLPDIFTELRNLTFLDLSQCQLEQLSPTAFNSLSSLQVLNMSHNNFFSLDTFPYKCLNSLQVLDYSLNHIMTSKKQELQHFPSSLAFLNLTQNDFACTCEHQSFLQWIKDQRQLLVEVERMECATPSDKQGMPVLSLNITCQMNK
# Text: (§1) Interaction between purified baboon lung SP-A, SP-A-peptides and TLR4-MD2 proteins using a microwell-based method: The binding between the purified baboon lung SP-A, SP-A-peptides and recombinant TLR4-MD2 and MD2 proteins was studied in vitro using a microwell-based method (Awasthi et al., 2004). The soluble, recombinant TLR4-MD2 protein (R&D Systems, MN) consisted of a mixture of recombinant human-TLR4 and MD2 proteins. The recombinant extracellular domain of human TLR4 protein (Glu 24-Lys 631 amino acids), was joined with a DNA sequence encoding the signal peptide from human CD33 and a 10× histidine tag at the C-terminus (Accession # O00206). For MD2 protein, a DNA sequence encoding the signal peptide from human CD33 was joined with the mature region of human MD-2 (mature region, Glu 17-Asn 160 amino acids) and a 10× histidine tag at the C-terminus (Accession # Q9Y6Y9). The chimeric proteins were expressed in a mouse myeloma cell line, NS0 (R&D Systems, MN). The proteins were obtained from the manufacturer in carrier-free condition and reconstituted in PBS containing 0.1% low-endotoxin BSA (MP Biomedicals, OH). MD2, an adaptor molecule for TLR4, is expressed by immune cells, and is known to bind TLR4 in a non-covalent manner (Jain et al., 2008). Thus, the binding of SP-A to the recombinant MD2 protein (R&D Systems, MN) was also studied.
# For the binding assay, microwell ultra-high-protein binding Immunolon 4HBX strips (Thermo Scientific, MA) were coated with soluble recombinant-TLR4-MD2 protein or MD2 protein (R&D Systems, 250 ng per well, diluted in 0.1 M NaHCO3, pH 9.6) overnight at room temperature. The plates were washed three times, and non-specific sites were blocked for 2 h at room temperature using phosphate buffered saline containing 0.1% triton-X 100 and 3% nonfat milk (Buffer A). […] The immune-complex was detected using 3,3′,5,5′-tetramethylbenzidine (TMB) substrate system (Sigma-Aldrich, MO). The reaction was stopped with 2 N H2SO4 and read at 405 and/or 450 nm spectrophotometrically (Molecular Devices, CA).
# [2] = system: LPS-induced acute inflammation; assay: Mouse model of LPS-inflammation (endotoxic shock-like symptoms, TNF-α); type: in vivo, Balb/c Mice; conditions: mice; for LPS-induced clinical symptoms (endotoxic shock-like): LPS 0.1 μg/g body weight i.p., SPA4 2.5 μg/g, SP-A 0.5 μg/g; for LPS-induced circulatory TNF-α amounts: LPS 0.1 μg/g body weight, serum, ELISA; for LPS-induced TNF-α levels in lung tissue homogenates: LPS 1 μg/g or 15 μg/g body weight, treated at 1 hour, sacrificed at 5 hours
# Method: In Example 5, the efficacy of SPA4 peptide in inhibiting LPS-induced acute inflammation was investigated in a mouse model of LPS-inflammation. Balb/c Mice were challenged with E. coli 0111:B4 highly purified, low protein-derived LPS (0.1 or 1 or 15 μg/g body wt) via an intraperitoneal route, one hour prior to treatment with SPA4 peptide (2.5 μg/g body weight) or full-length purified SP-A (0.5 μg/g body weight) via an intraperitoneal route. The mice were monitored for endotoxic-shock like clinical symptoms (including, but not limited to, ruffled fur, eye exudates, diarrhea, prostration, and lack of reactivity), and these symptoms were scored on the basis of severity from 0 to 3, and average clinical symptom indices were calculated for each animal based on the symptom grades (Metkar et al., 2007). Endotoxic-shock like clinical symptoms were noted (at 5 or 7 hours), and mice were sacrificed at different time-intervals after LPS challenge. Major organs and blood specimens were collected. Secreted amounts of TNF-α cytokine were measured in serum and lung tissue homogenates by ELISA method.
# DSS-colitis = assay: Dextran sodium sulfate (DSS)-colitis model in mice; type: in vivo; conditions: 3% DSS 7 days, SPA4 100 μg daily intraperitoneal
# Method: SPA4 peptide reduced serum TNF-α and inflammation in Dextran sodium sulfate (DSS)-colitis model in mice (FIG. 18). SPA4 peptide was also evaluated in the mouse model of DSS-colitis. DSS (3% in drinking water) was given to the mice for a period of 7 days. In the treatment group, mice were simultaneously injected with SPA4 peptide (100 μg daily via intraperitoneal route). After 2 days of recovery period, the mice were weighed, colons were macroscopically examined, and blood samples were harvested. The TNF-α levels were measured by ELISA.
# recombinant MD2 protein = target: T2, recombinant MD2 protein (Homo sapiens, UniProt Q9Y6Y9); assay: Microwell-based binding to immobilized recombinant MD2 protein; conditions: 0.25 μg MD2 per well
# T2 construct: human MD-2 (mature region, Glu 17-Asn 160 amino acids); 10x histidine tag (C); signal peptide from human CD33 (N); purchased R&D Systems, MN; host or cells: mouse myeloma cell line NS0
# T2 sequence (Q9Y6Y9 17-160): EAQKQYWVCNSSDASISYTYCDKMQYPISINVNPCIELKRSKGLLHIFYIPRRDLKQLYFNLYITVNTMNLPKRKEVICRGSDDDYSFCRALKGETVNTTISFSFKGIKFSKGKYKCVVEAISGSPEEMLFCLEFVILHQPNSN
# Text: as §1, with “The chimeric proteins were expressed in a mouse myeloma cell line, NS0 (R&D Systems, MN). The proteins were obtained from the manufacturer in carrier-free condition and reconstituted in PBS containing 0.1% low-endotoxin BSA (MP Biomedicals, OH). MD2, an adaptor molecule for TLR4, is expressed by immune cells, and is known to bind TLR4 in a non-covalent manner (Jain et al., 2008). Thus, the binding of SP-A to the recombinant MD2 protein (R&D Systems, MN) was also studied.” left out
# For the binding assay, microwell ultra-high-protein binding Immunolon 4HBX strips (Thermo Scientific, MA) were coated with soluble recombinant-TLR4-MD2 protein or MD2 protein (R&D Systems, 250 ng per well, diluted in 0.1 M NaHCO3, pH 9.6) overnight at room temperature. […] The immune-complex was detected using 3,3′,5,5′-tetramethylbenzidine (TMB) substrate system (Sigma-Aldrich, MO). The reaction was stopped with 2 N H2SO4 and read at 405 and/or 450 nm spectrophotometrically (Molecular Devices, CA).
Substance,binding to surface-bound TLR4-MD2 protein [1],efficiency of binding to TLR4-MD2 protein compared with whole native SP-A protein ([1]; SPA4 2-20 μg versus SP-A 2-10 μg),LPS-induced clinical symptoms (endotoxic shock-like) [2],LPS-induced circulatory TNF-α amounts [2],LPS-induced TNF-α levels in lung tissue homogenates [2],colitis symptoms (distension and shortening of the colon) (DSS-colitis),DSS-induced serum levels of circulating TNF-α (DSS-colitis; ELISA),body weight (DSS-colitis; compared to DSS-colitis mice),colon length (DSS-colitis; compared to DSS-colitis mice),binding to surface-bound MD2 protein (recombinant MD2 protein)
"GDFRYSDGTPVNYTNWYRGE [SPA4, GDFRYSDGT PVNYTNWYRGE]",binds to TLR4-MD2 protein,less efficient,inhibit,reduced,reduced,reduced the colitis symptoms,completely inhibited,recovered,recovered,–
SP-A: native surfactant protein-A purified from bronchioalveolar lavage fluid of a normal healthy adult baboon (MWLCPLALTLTLMAASGAACEVKDVCVGSPGIPGTPGSHGLPGRDGRDGVKGDPGPP; listed as Papio cynocephalus),showed binding,–,inhibit,reduced,low,–,–,–,–,found to bind
